Laboratory results from PubChem BioAssay AID2060904 (Molecular Pharmacology Branch, DTP, NCI, 2025).

System: 349418-098-R-PDC complex spheroid viability
Assay: Anticancer human tumor 349418-098-R-PDC patient-derived lung adenocarcinoma cell line growth inhibition [RAS]
Settings: for IC50: curve of first compound; for viability, T/C: stronger effect = lower value
Outline: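 Multi-cell-type spheroids: tumor cells plus HUVEC endothelial cells and mesenchymal stem cells. RAS-pathway inhibitors were combined with targeted agents, each dosed in half-log steps down from clinical Cmax, or from 10 microM when Cmax was unknown.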

[1] = second compound 0.000949 µM, first compound 0.0316 µM
[2] = second compound 0.000949 µM, first compound 0.1 µM
[3] = second compound 0.000949 µM, first compound 0.316 µM
[4] = second compound 0.000949 µM, first compound 1 µM
[5] = second compound 0.003 µM, first compound 0.0316 µM
[6] = second compound 0.003 µM, first compound 0.1 µM
[7] = second compound 0.003 µM, first compound 0.316 µM
[8] = second compound 0.003 µM, first compound 1 µM
[9] = second compound 0.00949 µM, first compound 0.0316 µM
[10] = second compound 0.00949 µM, first compound 0.1 µM
[11] = second compound 0.00949 µM, first compound 0.316 µM
[12] = second compound 0.00949 µM, first compound 1 µM
[13] = second compound 0.03 µM, first compound 0.0316 µM
[14] = second compound 0.03 µM, first compound 0.1 µM
[15] = second compound 0.03 µM, first compound 0.316 µM
[16] = second compound 0.03 µM, first compound 1 µM
[17] = second compound 0.0949 µM, first compound 0.0316 µM
[18] = second compound 0.0949 µM, first compound 0.1 µM
[19] = second compound 0.0949 µM, first compound 0.316 µM
[20] = second compound 0.0949 µM, first compound 1 µM
[21] = second compound 0.3 µM, first compound 0.0316 µM
[22] = second compound 0.3 µM, first compound 0.1 µM
[23] = second compound 0.3 µM, first compound 0.316 µM
[24] = second compound 0.3 µM, first compound 1 µM
[25] = second compound 0.000949 µM, first compound 3.16 µM
[26] = second compound 0.000949 µM, first compound 10 µM
[27] = second compound 0.003 µM, first compound 3.16 µM
[28] = second compound 0.003 µM, first compound 10 µM
[29] = second compound 0.00949 µM, first compound 3.16 µM
[30] = second compound 0.00949 µM, first compound 10 µM
[31] = second compound 0.03 µM, first compound 3.16 µM
[32] = second compound 0.03 µM, first compound 10 µM
[33] = second compound 0.0949 µM, first compound 3.16 µM
[34] = second compound 0.0949 µM, first compound 10 µM
[35] = second compound 0.3 µM, first compound 3.16 µM
[36] = second compound 0.3 µM, first compound 10 µM
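Note: spheroids exposed to compound for seven days before viability readout.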

## CCN1CCN(Cc2ccc(Nc3ncc(F)c(-c4cc(F)c5nc(C)n(C(C)C)c5c4)n3)nc2)CC1 + CCn1c(-c2cc(N3CCN(C)CC3)cnc2C(C)OC)c2c3cc(ccc31)-c1csc(n1)CC(NC(=O)C1CC1C)C(=O)N1CCCC(N1)C(=O)OCC(C)(C)C2
Second compound 0.000949 µM
  IC50: 0.0193 µM
Second compound 0.003 µM
  IC50: 0.0164 µM
Second compound 0.00949 µM
  IC50: 0.0171 µM
Second compound 0.03 µM
  IC50: 0.0218 µM
Second compound 0.0949 µM
  IC50: 0.0287 µM
Second compound 0.3 µM
  IC50: 0.0206 µM
Second compound 0.000949 µM, first compound 0.00316 µM
  viability, T/C: 96.6%
Second compound 0.000949 µM, first compound 0.01 µM
  viability, T/C: 68.5%
[1]
  viability, T/C: 33.4%
[2]
  viability, T/C: 28.7%
[3]
  viability, T/C: 20.4%
[4]
  viability, T/C: 15.3%
Second compound 0.003 µM, first compound 0.00316 µM
  viability, T/C: 93.4%
Second compound 0.003 µM, first compound 0.01 µM
  viability, T/C: 59.7%
[5]
  viability, T/C: 38.5%
[6]
  viability, T/C: 19.3%
[7]
  viability, T/C: 20.3%
[8]
  viability, T/C: 14%
Second compound 0.00949 µM, first compound 0.00316 µM
  viability, T/C: 103%
Second compound 0.00949 µM, first compound 0.01 µM
  viability, T/C: 63.4%
[9]
  viability, T/C: 35.3%
[10]
  viability, T/C: 18.5%
[11]
  viability, T/C: 20%
[12]
  viability, T/C: 12.7%
Second compound 0.03 µM, first compound 0.00316 µM
  viability, T/C: 104%
Second compound 0.03 µM, first compound 0.01 µM
  viability, T/C: 85.5%
[13]
  viability, T/C: 33%
[14]
  viability, T/C: 19.5%
[15]
  viability, T/C: 23.5%
[16]
  viability, T/C: 15%
Second compound 0.0949 µM, first compound 0.00316 µM
  viability, T/C: 92.7%
Second compound 0.0949 µM, first compound 0.01 µM
  viability, T/C: 54.4%
[17]
  viability, T/C: 58.4%
[18]
  viability, T/C: 33.1%
[19]
  viability, T/C: 23.1%
[20]
  viability, T/C: 12.8%
Second compound 0.3 µM, first compound 0.00316 µM
  viability, T/C: 88.1%
Second compound 0.3 µM, first compound 0.01 µM
  viability, T/C: 60.1%
[21]
  viability, T/C: 42.8%
[22]
  viability, T/C: 32.3%
[23]
  viability, T/C: 22%
[24]
  viability, T/C: 14.6%

## Cc1nc(N2CCC3(CC2)COC(C)C3N)c(CO)nc1Sc1ccnc(N)c1Cl (stereo unspecified) + CCn1c(-c2cc(N3CCN(C)CC3)cnc2C(C)OC)c2c3cc(ccc31)-c1csc(n1)CC(NC(=O)C1CC1C)C(=O)N1CCCC(N1)C(=O)OCC(C)(C)C2
Second compound 0.000949 µM
  IC50: > 10 µM
Second compound 0.003 µM
  IC50: > 10 µM
Second compound 0.00949 µM
  IC50: > 10 µM
Second compound 0.03 µM
  IC50: > 10 µM
Second compound 0.0949 µM
  IC50: > 10 µM
Second compound 0.3 µM
  IC50: > 10 µM
[1]
  viability, T/C: 90.4%
[2]
  viability, T/C: 99.3%
[3]
  viability, T/C: 88.4%
[4]
  viability, T/C: 102%
[25]
  viability, T/C: 97.2%
[26]
  viability, T/C: 95.7%
[5]
  viability, T/C: 114%
[6]
  viability, T/C: 103%
[7]
  viability, T/C: 104%
[8]
  viability, T/C: 103%
[27]
  viability, T/C: 100%
[28]
  viability, T/C: 95.8%
[9]
  viability, T/C: 111%
[10]
  viability, T/C: 89.2%
[11]
  viability, T/C: 97.1%
[12]
  viability, T/C: 112%
[29]
  viability, T/C: 114%
[30]
  viability, T/C: 115%
[13]
  viability, T/C: 96%
[14]
  viability, T/C: 106%
[15]
  viability, T/C: 105%
[16]
  viability, T/C: 99.1%
[31]
  viability, T/C: 106%
[32]
  viability, T/C: 90.6%
[17]
  viability, T/C: 104%
[18]
  viability, T/C: 114%
[19]
  viability, T/C: 79%
[20]
  viability, T/C: 92%
[33]
  viability, T/C: 102%
[34]
  viability, T/C: 104%
[21]
  viability, T/C: 109%
[22]
  viability, T/C: 106%
[23]
  viability, T/C: 100%
[24]
  viability, T/C: 107%
[35]
  viability, T/C: 115%
[36]
  viability, T/C: 115%

## NC1c2ccccc2OC12CCN(c1cnc3c(N4CCCc5ncccc54)n[nH]c3n1)CC2 (stereo unspecified) + CCn1c(-c2cc(N3CCN(C)CC3)cnc2C(C)OC)c2c3cc(ccc31)-c1csc(n1)CC(NC(=O)C1CC1C)C(=O)N1CCCC(N1)C(=O)OCC(C)(C)C2
Second compound 0.000949 µM
  IC50: > 10 µM
Second compound 0.003 µM
  IC50: > 10 µM
Second compound 0.00949 µM
  IC50: > 10 µM
Second compound 0.03 µM
  IC50: > 10 µM
Second compound 0.0949 µM
  IC50: > 10 µM
Second compound 0.3 µM
  IC50: > 10 µM
[1]
  viability, T/C: 91.7%
[2]
  viability, T/C: 98.8%
[3]
  viability, T/C: 111%
[4]
  viability, T/C: 90.2%
[25]
  viability, T/C: 86.5%
[26]
  viability, T/C: 76.8%
[5]
  viability, T/C: 98.1%
[6]
  viability, T/C: 120%
[7]
  viability, T/C: 105%
[8]
  viability, T/C: 102%
[27]
  viability, T/C: 95.6%
[28]
  viability, T/C: 76.8%
[9]
  viability, T/C: 116%
[10]
  viability, T/C: 102%
[11]
  viability, T/C: 97.1%
[12]
  viability, T/C: 98%
[29]
  viability, T/C: 90.7%
[30]
  viability, T/C: 73.9%
[13]
  viability, T/C: 113%
[14]
  viability, T/C: 102%
[15]
  viability, T/C: 111%
[16]
  viability, T/C: 107%
[31]
  viability, T/C: 102%
[32]
  viability, T/C: 72.3%
[17]
  viability, T/C: 114%
[18]
  viability, T/C: 88%
[19]
  viability, T/C: 110%
[20]
  viability, T/C: 107%
[33]
  viability, T/C: 116%
[34]
  viability, T/C: 78.5%
[21]
  viability, T/C: 103%
[22]
  viability, T/C: 105%
[23]
  viability, T/C: 113%
[24]
  viability, T/C: 93.9%
[35]
  viability, T/C: 104%
[36]
  viability, T/C: 64.8%
